From patent US12410171B2, “Tropomyosin receptor kinase (TRK) degradation compounds and methods of use” (Cullgen (Shanghai), Inc., priority 2020, dated 2025)

Target: T1, TPM3-TRKA fusion protein (Homo sapiens, UniProt P04629)
T1 construct: The resulted chimeric proteins always retain the kinase domain of TRK proteins; TPM3 (fusion partner, N-terminal part of tropomyosin alpha-3, P06753); endogenous in cells; host or cells: KM12 colon cancer cells; the other entry of the earlier key: TPM3 (P06753, Tropomyosin alpha-3 chain)
T1 sequence (P04629 with tags, fused parts or gaps): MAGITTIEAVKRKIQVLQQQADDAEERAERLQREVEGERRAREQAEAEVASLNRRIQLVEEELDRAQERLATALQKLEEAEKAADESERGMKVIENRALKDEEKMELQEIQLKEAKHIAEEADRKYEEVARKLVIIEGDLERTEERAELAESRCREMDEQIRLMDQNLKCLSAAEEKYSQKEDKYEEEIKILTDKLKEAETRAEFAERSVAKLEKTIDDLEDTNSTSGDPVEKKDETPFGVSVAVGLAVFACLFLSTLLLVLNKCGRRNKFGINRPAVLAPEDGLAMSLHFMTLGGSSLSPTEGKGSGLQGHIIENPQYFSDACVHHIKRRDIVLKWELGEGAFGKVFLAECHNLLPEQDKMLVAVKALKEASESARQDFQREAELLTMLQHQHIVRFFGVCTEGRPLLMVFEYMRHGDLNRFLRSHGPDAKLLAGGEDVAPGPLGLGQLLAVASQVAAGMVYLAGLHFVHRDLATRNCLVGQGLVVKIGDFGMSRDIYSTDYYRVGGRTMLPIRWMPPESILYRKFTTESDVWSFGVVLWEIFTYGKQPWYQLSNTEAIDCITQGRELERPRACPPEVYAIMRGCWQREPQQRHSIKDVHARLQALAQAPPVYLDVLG
Experiment: TPM3-TRKA fusion protein levels in KM12 cells (Western blot)
Assay type: cell-based
Conditions: 16 h; TPM3-TRKA degradation in KM12 cells at 10 nM compound, category of percentage degradation; read-out: Degradation (at 10 nM)
In short: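 TPM3-TRKA levels were assessed by Western blot with chemiluminescent detection and band densitometry, after SDS-PAGE of BCA-normalized RIPA lysates. Before lysis, KM12 cells received DMSO, compounds or matched control compounds at concentrations including 0.1, 1, 10 and 100 nM and 0.4–30 nM. Exposures lasted 4 h, 8–16 h or 16 h.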

SMILES	percent degradation of TPM3-TRKA protein at 0.01 µM [%]
O=C(CN1CCN(c2cccc(-c3cnc4ccc(N5CCC[C@@H]5c5cccc(F)c5)nn34)n2)CC1)NCCOCCOCCOCCOCCOCCNc1cccc2c1C(=O)N(C1CCC(=O)NC1=O)C2=O (stereo partly drawn) [TR-104, N-(17-((2-(2,6-dioxopiperidin-3-yl)-1,3-dioxoisoindolin-4-yl)amino)-3,6,9,12,15-pentaoxaheptadecyl)-2-(4-(6-(6-((R)-2-(3-fluorophenyl)pyrrolidin-1-yl)imidazo[1,2-b]pyridazin-3-yl)pyridin-2-yl)piperazin-1-yl)acetamide]	> 80
O=C(CN1CCN(c2cccc(-c3cnc4ccc(N5CCC[C@@H]5c5cccc(F)c5)nn34)n2)CC1)NCCOCCOCCNc1cccc2c1C(=O)N(C1CCC(=O)NC1=O)C2=O (stereo partly drawn) [TR-105, N-(2-(2-(2-((2-(2,6-dioxopiperidin-3-yl)-1,3-dioxoisoindolin-4-yl)amino)ethoxy)ethoxy)ethyl)-2-(4-(6-(6-((R)-2-(3-fluorophenyl)pyrrolidin-1-yl)imidazo[1,2-b]pyridazin-3-yl)pyridin-2-yl)piperazin-1-yl)acetamide]	> 80
O=C(CN1CCN(c2cccc(-c3cnc4ccc(N5CCC[C@@H]5c5cccc(F)c5)nn34)n2)CC1)NCCCCNc1cccc2c1C(=O)N(C1CCC(=O)NC1=O)C2=O (stereo partly drawn) [TR-107, N-(4-((2-(2,6-dioxopiperidin-3-yl)-1,3-dioxoisoindolin-4-yl)amino)butyl)-2-(4-(6-(6-((R)-2-(3-fluorophenyl)pyrrolidin-1-yl)imidazo[1,2-b]pyridazin-3-yl)pyridin-2-yl)piperazin-1-yl)acetamide]	> 80
O=C(CN1CCN(c2cccc(-c3cnc4ccc(N5CCC[C@@H]5c5cccc(F)c5)nn34)n2)CC1)NCCOCCOCCOCCOCCNc1cccc2c1C(=O)N(C1CCC(=O)NC1=O)C2=O (stereo partly drawn) [TR-108, N-(14-((2-(2,6-dioxopiperidin-3-yl)-1,3-dioxoisoindolin-4-yl)amino)-3,6,9,12-tetraoxatetradecyl)-2-(4-(6-(6-((R)-2-(3-fluorophenyl)pyrrolidin-1-yl)imidazo[1,2-b]pyridazin-3-yl)pyridin-2-yl)piperazin-1-yl)acetamide]	> 80
O=C(CN1CCN(c2cccc(-c3cnc4ccc(N5CCC[C@@H]5c5cccc(F)c5)nn34)n2)CC1)NCCCNc1cccc2c1C(=O)N(C1CCC(=O)NC1=O)C2=O (stereo partly drawn) [TR-109, N-(3-((2-(2,6-dioxopiperidin-3-yl)-1,3-dioxoisoindolin-4-yl)amino)propyl)-2-(4-(6-(6-((R)-2-(3-fluorophenyl)pyrrolidin-1-yl)imidazo[1,2-b]pyridazin-3-yl)pyridin-2-yl)piperazin-1-yl)acetamide]	> 80
O=C1CCC(N2C(=O)c3ccc(NCCOCCOCCC(=O)N4CCN(c5cccc(-c6cnc7ccc(N8CCC[C@@H]8c8cccc(F)c8)nn67)n5)CC4)cc3C2=O)C(=O)N1 (stereo partly drawn) [TR-113, 2-(2,6-Dioxopiperidin-3-yl)-5-((2-(2-(3-(4-(6-(6-((R)-2˜ (3-fluorophenyl)pyrrolidin-1-yl)imidazo[1,2-b]pyridazin-3-yl)pyridin-2-yl)piperazin-1-yl)-3-oxopropoxy)ethoxy)ethyl)amino) isoindoline-1,3-dione]	> 80
O=C1CCC(N2C(=O)c3ccc(NCCOCCOCCOCCOCCOCCC(=O)N4CCN(c5cccc(-c6cnc7ccc(N8CCC[C@@H]8c8cccc(F)c8)nn67)n5)CC4)cc3C2=O)C(=O)N1 (stereo partly shown) [TR-116]	> 80
O=C1CCC(N2C(=O)c3ccc(NCCCCCCC(=O)N4CCN(c5cccc(-c6cnc7ccc(N8CCC[C@@H]8c8cccc(F)c8)nn67)n5)CC4)cc3C2=O)C(=O)N1 (stereo partly drawn) [TR-117, 2-(2,6-Dioxopiperidin-3-yl)-5-((7-(4-(6-(6-((R)-2-(3-fluorophenyl)pyrrolidin-1-yl)imidazo[1,2-b]pyridazin-3-yl)pyridin-2-yl)piperazin-1-yl)-7-oxoheptyl)amino) isoindoline-1,3-dione]	> 80
O=C1CCC(N2C(=O)c3ccc(NCCCCCCCC(=O)N4CCN(c5cccc(-c6cnc7ccc(N8CCC[C@@H]8c8cccc(F)c8)nn67)n5)CC4)cc3C2=O)C(=O)N1 (stereo partly drawn) [TR-118, 2-(2,6-Dioxopiperidin-3-yl)-5-((8-(4-(6-(6-((R)-2-(3-fluorophenyl)pyrrolidin-1-yl)imidazo[1,2-b]pyridazin-3-yl)pyridin-2-yl)piperazin-1-yl)-8-oxooctyl)amino) isoindoline-1,3-dione]	> 80
O=C1CCC(N2C(=O)c3ccc(NCCOCCC(=O)N4CCN(c5cccc(-c6cnc7ccc(N8CCC[C@@H]8c8cccc(F)c8)nn67)n5)CC4)cc3C2=O)C(=O)N1 (stereo partly drawn) [TR-119, 2-(2,6-Dioxopiperidin-3-yl)-5-((2-(3-(4-(6-(6-((R)-2-(3-fluorophenyl)pyrrolidin-1-yl)imidazo[1,2-b]pyridazin-3-yl)pyridin-2-yl)piperazin-1-yl)-3-oxopropoxy)ethyl)amino) isoindoline-1,3-dione]	> 80
O=C1CCC(N2C(=O)c3ccc(NCCOCCOCCOCCOCCC(=O)N4CCN(c5cccc(-c6cnc7ccc(N8CCC[C@@H]8c8cccc(F)c8)nn67)n5)CC4)cc3C2=O)C(=O)N1 (stereo partly drawn) [TR-120, 2-(2,6-Dioxopiperidin-3-yl)-5-((15-(4-(6-(6-((R)-2-(3-fluorophenyl)pyrrolidin-1-yl)imidazo[1,2-6]pyridazin-3-yl)pyridin-2-yl)piperazin-1-yl)-15-oxo-3,6,9,12-tetraoxapentadecyl)amino) isoindoline-1,3-dione]	> 80
O=C1CCC(N2C(=O)c3ccc(NCCC(=O)N4CCN(c5cccc(-c6cnc7ccc(N8CCC[C@@H]8c8cccc(F)c8)nn67)n5)CC4)cc3C2=O)C(=O)N1 (stereo partly drawn) [TR-121, 2-(2,6-Dioxopiperidin-3-yl)-5-((3-(4-(6-(6-((R)-2-(3-fluorophenyl)pyrrolidin-1-yl)imidazo[1,2-b]pyridazin-3-yl)pyridin-2-yl)piperazin-1-yl)-3-oxopropyl)amino) isoindoline-1,3-dione]	> 80
O=C1CCC(N2C(=O)c3ccc(NCCCCCC(=O)N4CCN(c5cccc(-c6cnc7ccc(N8CCC[C@@H]8c8cccc(F)c8)nn67)n5)CC4)cc3C2=O)C(=O)N1 (stereo partly drawn) [TR-122, 2-(2,6-Dioxopiperidin-3-yl)-5-((6-(4-(6-(6-((R)-2-(3-fluorophenyl)pyrrolidin-1-yl)imidazo[1,2-b]pyridazin-3-yl)pyridin-2-yl)piperazin-1-yl)-6-oxohexyl)amino) isoindoline-1,3-dione]	> 80
O=C(CN1CCN(c2cccc(-c3cnc4ccc(N5CCC[C@@H]5c5cccc(F)c5)nn34)n2)CC1)NCCCCNc1ccc2c(c1)C(=O)N(C1CCC(=O)NC1=O)C2=O (stereo partly drawn) [TR-124, N-(4-((2-(2,6-dioxopiperidin-3-yl)-1,3-dioxoisoindolin-S-yl)amino)butyl)-2-(4-(6-(6-((R)-2-(3-fluorophenyl)pyrrolidin-1-yl)imidazo[1,2-b]pyridazin-3-yl)pyridin-2-yl)piperazin-1-yl)acetamide]	> 80
O=C(CN1CCN(c2cccc(-c3cnc4ccc(N5CCC[C@@H]5c5cccc(F)c5)nn34)n2)CC1)NCCOCCOCCOCCOCCNc1ccc2c(c1)C(=O)N(C1CCC(=O)NC1=O)C2=O (stereo partly drawn) [TR-125, N-(14-((2-(2,6-dioxopiperidin-3-yl)-1,3-dioxoisoindolin-5-yl)amino)-3,6,9,12-tetraoxatetradecyl)-2-(4-(6-(6-((R)-2-(3-fluorophenyl)pyrrolidin-1-yl)imidazo[1,2-b]pyridazin-3-yl)pyridin-2-yl)piperazin-1-yl)acetamide]	> 80
O=C(CN1CCN(c2cccc(-c3cnc4ccc(N5CCC[C@@H]5c5cccc(F)c5)nn34)n2)CC1)NCCCNc1ccc2c(c1)C(=O)N(C1CCC(=O)NC1=O)C2=O (stereo partly drawn) [TR-127, N-(3-((2-(2,6-dioxopiperidin-3-yl)-1,3-dioxoisoindolin-S-yl)amino)propyl)-2-(4-(6-(6-((R)-2-(3-fluorophenyl)pyrrolidin-1-yl)imidazo[1,2-b]pyridazin-3-yl)pyridin-2-yl)piperazin-1-yl)acetamide]	> 80
O=C(CN1CCN(c2cccc(-c3cnc4ccc(N5CCC[C@@H]5c5cccc(F)c5)nn34)n2)CC1)NCCCCCCNc1ccc2c(c1)C(=O)N(C1CCC(=O)NC1=O)C2=O (stereo partly drawn) [TR-128, N-(6-((2-(2,6-dioxopiperidin-3-yl)-1,3-dioxoisoindolin-5-yl)amino)hexyl)-2-(4-(6-(6-((R)-2-(3-fluorophenyl)pyrrolidin-1-yl)imidazo[1,2-b]pyridazin-3-yl)pyridin-2-yl)piperazin-1-yl)acetamide]	> 80
O=C(CN1CCN(c2cccc(-c3cnc4ccc(N5CCC[C@@H]5c5cccc(F)c5)nn34)n2)CC1)NCCOCCOCCOCCNc1ccc2c(c1)C(=O)N(C1CCC(=O)NC1=O)C2=O (stereo partly drawn) [TR-129, N-(2-(2-(2-(2-((2-(2,6-dioxopiperidin-3-yl)-1,3-dioxoisoindolin-5-yl)amino)ethoxy)ethoxy)ethoxy)ethyl)-2-(4-(6-(6-((R)-2-(3-fluorophenyl)pyrrolidin-1-yl)imidazo[1,2-b]pyridazin-3-yl)pyridin-2-yl)piperazin-1-yl)acetamide]	> 80
O=C(CN1CCN(c2cccc(-c3cnc4ccc(N5CCC[C@@H]5c5cccc(F)c5)nn34)n2)CC1)NCCCCCNc1ccc2c(c1)C(=O)N(C1CCC(=O)NC1=O)C2=O (stereo partly drawn) [TR-131, N-(5-((2-(2,6-dioxopiperidin-3-yl)-1,3-dioxoisoindolin-5-yl)amino)pentyl)-2-(4-(6-(6-((R)-2-(3-fluorophenyl)pyrrolidin-1-yl)imidazo[1,2-b]pyridazin-3-yl)pyridin-2-yl)piperazin-1-yl)acetamide]	> 80
